Measurements published in the supplement of paper PMC10307832.

What was measured:
Experiment in all cases: relative viability (nuclei count vs DMSO), 5 days (fraction); higher = more cells survive
[1] = compound: CCc1cnn2c(NCc3ccc[n+]([O-])c3)cc(N3CCCC[C@H]3CCO)nc12 [Dinaciclib]
Method in brief: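 Lung cancer cell lines received five library-drug doses (not always all listed) spaced by √10, pinned on vehicle-anchored 1536-well plates after an overnight stay at 37 °C. Five days later, with no medium change, nuclei were Hoechst-stained, imaged at 4× and counted with MetaXpress. Viability is treated-well nuclei relative to vehicle-well nuclei, as a median across plates. Passing plates had control CV below 25% and at least one doubling.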

[2] = compound: CCc1cnn2c(NCc3ccc[n+]([O-])c3)cc(N3CCCC[C@H]3CCO)nc12 [Dinaciclib] + N=C(N)NC(=N)NCCc1ccccc1 [Phenformin] (partner 250 µM)
Method in brief: (§1)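 Lung cancer cell lines in 1536-well plates were dosed by pin tool the day after seeding, either with one drug alone or with a fixed anchor-drug dose plus five library-drug doses (not always all listed) in √10 steps. After 5 days, cells were fixed and their nuclei stained in one step (final 0.05% Triton X-100, 1% formaldehyde, 1 ug/ml Hoechst), then counted on 4× images. Relative viability is the nuclei count in treated wells divided by that in vehicle wells. Values are medians of duplicate plates.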

[3] = compound: CCc1cnn2c(NCc3ccc[n+]([O-])c3)cc(N3CCCC[C@H]3CCO)nc12 [Dinaciclib] + COc1cc2c(Oc3ccc(NC(=O)C4(C(=O)Nc5ccc(F)cc5)CC4)cc3F)ccnc2cc1OCCCN1CCOCC1 [Foretinib] (partner 0.25 µM)
Method in brief: as §1

[4] = compound: CCc1cnn2c(NCc3ccc[n+]([O-])c3)cc(N3CCCC[C@H]3CCO)nc12 [Dinaciclib] + Cc1cc(Nc2cc(N3CCN(C)CC3)nc(Sc3ccc(NC(=O)C4CC4)cc3)n2)n[nH]1 [Tozasertib] (partner 0.1 µM)
Method in brief: as §1

[5] = compound: CCc1cnn2c(NCc3ccc[n+]([O-])c3)cc(N3CCCC[C@H]3CCO)nc12 [Dinaciclib] + CCNC(=O)c1noc(-c2cc(C(C)C)c(O)cc2O)c1-c1ccc(CN2CCOCC2)cc1 [Luminespib] (partner 0.01 µM)
Method in brief: as §1

[6] = compound: CCc1cnn2c(NCc3ccc[n+]([O-])c3)cc(N3CCCC[C@H]3CCO)nc12 [Dinaciclib] + COc1cccc2cc(-c3nc([C@H]4CC[C@H](C(=O)O)CC4)n4ncnc(N)c34)[nH]c12 [OSI-027] (partner 0.5 µM)
Method in brief: as §1

[7] = compound: CCc1cnn2c(NCc3ccc[n+]([O-])c3)cc(N3CCCC[C@H]3CCO)nc12 [Dinaciclib] + Cc1nc(Nc2ncc(C(=O)Nc3c(C)cccc3Cl)s2)cc(N2CCN(CCO)CC2)n1 [Dasatinib] (partner 0.075 µM)
Method in brief: as §1

[8] = compound: CCc1cnn2c(NCc3ccc[n+]([O-])c3)cc(N3CCCC[C@H]3CCO)nc12 [Dinaciclib] + O=C(c1cc(Cc2n[nH]c(=O)c3ccccc23)ccc1F)N1CCN(C(=O)C2CC2)CC1 [Olaparib] (partner 8 µM)
Method in brief: as §1

[9] = compound: CCc1cnn2c(NCc3ccc[n+]([O-])c3)cc(N3CCCC[C@H]3CCO)nc12 [Dinaciclib] + Nc1nc2[nH]cc(CCc3ccc(C(=O)N[C@@H](CCC(=O)O)C(=O)O)cc3)c2c(=O)[nH]1 [Pemetrexed] (partner 0.2 µM)
Method in brief: as §1

[10] = compound: CCc1cnn2c(NCc3ccc[n+]([O-])c3)cc(N3CCCC[C@H]3CCO)nc12 [Dinaciclib] + CC(=O)c1c(C)c2cnc(Nc3ccc(N4CCNCC4)cn3)nc2n(C2CCCC2)c1=O [Palbociclib] (partner 0.5 µM)
Method in brief: as §1

[11] = compound: CCc1cnn2c(NCc3ccc[n+]([O-])c3)cc(N3CCCC[C@H]3CCO)nc12 [Dinaciclib] + CC(=O)Nc1cccc(-n2c(=O)n(C3CC3)c(=O)c3c(Nc4ccc(I)cc4F)n(C)c(=O)c(C)c32)c1 [Trametinib] (partner 0.02 µM)
Method in brief: as §1

[12] = compound: CCc1cnn2c(NCc3ccc[n+]([O-])c3)cc(N3CCCC[C@H]3CCO)nc12 [Dinaciclib] + Nc1ncn([C@H]2C[C@H](O)[C@@H](CO)O2)c(=O)n1 [Decitabine] (partner 2 µM)
Method in brief: as §1

[13] = compound: CCc1cnn2c(NCc3ccc[n+]([O-])c3)cc(N3CCCC[C@H]3CCO)nc12 [Dinaciclib] + NC(=O)Nc1cc(-c2cccc(F)c2)sc1C(=O)N[C@H]1CCCNC1 [AZD7762] (partner 0.2 µM)
Method in brief: as §1

[14] = compound: CCc1cnn2c(NCc3ccc[n+]([O-])c3)cc(N3CCCC[C@H]3CCO)nc12 [Dinaciclib] + O=C(CCCCCCC(=O)Nc1ccccc1)NO [Vorinostat] (partner 1 µM)
Method in brief: as §1

NCI-H1623
relative viability ([1]; 0.009487 µM): 1.02
relative viability ([1]; 0.03 µM): 0.332
relative viability ([1]; 0.09487 µM): 0.26
relative viability ([1]; 0.3 µM): 0.196
relative viability ([2]; first compound 0.009487 µM): 0.609
relative viability ([2]; first compound 0.03 µM): 0.259
relative viability ([2]; first compound 0.09487 µM): 0.213
relative viability ([2]; first compound 0.3 µM): 0.225
relative viability ([3]; first compound 0.009487 µM): 0.831
relative viability ([3]; first compound 0.03 µM): 0.273
relative viability ([3]; first compound 0.09487 µM): 0.235
relative viability ([3]; first compound 0.3 µM): 0.234
relative viability ([4]; first compound 0.009487 µM): 0.437
relative viability ([4]; first compound 0.03 µM): 0.249
relative viability ([4]; first compound 0.09487 µM): 0.207
relative viability ([4]; first compound 0.3 µM): 0.193
relative viability ([5]; first compound 0.009487 µM): 0.428
relative viability ([5]; first compound 0.03 µM): 0.262
relative viability ([5]; first compound 0.09487 µM): 0.132
relative viability ([5]; first compound 0.3 µM): 0.144
relative viability ([6]; first compound 0.009487 µM): 0.397
relative viability ([6]; first compound 0.03 µM): 0.236
relative viability ([6]; first compound 0.09487 µM): 0.231
relative viability ([6]; first compound 0.3 µM): 0.2
relative viability ([7]; first compound 0.009487 µM): 0.518
relative viability ([7]; first compound 0.03 µM): 0.36
relative viability ([7]; first compound 0.09487 µM): 0.207
relative viability ([7]; first compound 0.3 µM): 0.231

NCI-H1648
relative viability ([1]; 0.009487 µM): 0.788
relative viability ([1]; 0.03 µM): 0.301
relative viability ([1]; 0.09487 µM): 0.247
relative viability ([1]; 0.3 µM): 0.29
relative viability ([8]; first compound 0.009487 µM): 0.521
relative viability ([8]; first compound 0.03 µM): 0.387
relative viability ([8]; first compound 0.09487 µM): 0.234
relative viability ([8]; first compound 0.3 µM): 0.219
relative viability ([9]; first compound 0.009487 µM): 0.644
relative viability ([9]; first compound 0.03 µM): 0.677
relative viability ([9]; first compound 0.09487 µM): 0.25
relative viability ([9]; first compound 0.3 µM): 0.199
relative viability ([4]; first compound 0.009487 µM): 0.503
relative viability ([4]; first compound 0.03 µM): 0.274
relative viability ([4]; first compound 0.09487 µM): 0.166
relative viability ([4]; first compound 0.3 µM): 0.207
relative viability ([10]; first compound 0.009487 µM): 0.227
relative viability ([10]; first compound 0.03 µM): 0.223
relative viability ([10]; first compound 0.09487 µM): 0.265
relative viability ([10]; first compound 0.3 µM): 0.224
relative viability ([11]; first compound 0.009487 µM): 0.49
relative viability ([11]; first compound 0.03 µM): 0.346
relative viability ([11]; first compound 0.09487 µM): 0.241
relative viability ([11]; first compound 0.3 µM): 0.264
relative viability ([12]; first compound 0.009487 µM): 0.468
relative viability ([12]; first compound 0.03 µM): 0.218
relative viability ([12]; first compound 0.09487 µM): 0.231
relative viability ([12]; first compound 0.3 µM): 0.217
relative viability ([6]; first compound 0.009487 µM): 0.263
relative viability ([6]; first compound 0.03 µM): 0.259
relative viability ([6]; first compound 0.09487 µM): 0.265
relative viability ([6]; first compound 0.3 µM): 0.212
relative viability ([13]; first compound 0.009487 µM): 0.85
relative viability ([13]; first compound 0.03 µM): 0.577
relative viability ([13]; first compound 0.09487 µM): 0.266
relative viability ([13]; first compound 0.3 µM): 0.24
relative viability ([14]; first compound 0.009487 µM): 0.275
relative viability ([14]; first compound 0.03 µM): 0.434
relative viability ([14]; first compound 0.09487 µM): 0.294
relative viability ([14]; first compound 0.3 µM): 0.262
